Test results reported in patent US10501499B2 (priority 2012, dated 2019).

What was measured:
human PBMCs [1] = format: cell-based
human PBMCs [2] = format: cell-based; remark: listed apart in the source

Sequence	Intracellular Uptake (human PBMCs [1])	Extracellular Uptake (human PBMCs [2])
RGYLPAVGAPIRRVIRVIAHGLRLR [BI310-511e]	44.59	473.80
RGYLPAVGAPIRVIRVIAHGLRLR [BI310-511f]	26.85	178.61
RGYLPAVGAPIRRRVIRVIAHGLRLR [BI310-511]	22.62	227.46
RRGYLPAVGAPIRRVIRVIAHGLRL [BI310-511d]	70.64	267.15
RGTANWARVISRANWAKVILRNWAKVI [BI330-83c]	154.43	435.66
RGTANWARVISRRANWAKVILRNWAKVI [BI330-83b]	120.10	518.60
RGTANWARVISRGANWAKVILRNWAKVI [BI330-83d]	52.14	267.38
RGYLPAVGAPIRRVIRVIAHGLRL [BI310-511g]	66.74	171.31
RRGTANWARVISRANWAKVILRNWAKVI [BI330-83]	194.69	364.04
RRGYLPAVGAPIRRVIRVIAHGLRLR [BI310-511b]	67.29	466.71
RRGYLPAVGAPIRRRVIRVIAHGLRL [BI310-511c]	31.83	203.62
